This is an account of results in ChEMBL document CHEMBL4706474, “Tetrahydro-2-naphthyl and 2-Indanyl Triazolopyrimidines Targeting Plasmodium falciparum Dihydroorotate Dehydrogenase Display Potent and Selective Antimalarial Activity” (J Med Chem, 2016).

Converted amounts (≈) assume the structure as drawn.

Data set [1] is described as follows: Unbound AUC (0 to infinity) in Sprague-Dawley rat at 21.3 mg/kg, po measured over 24 hrs by LC-MS analysis. The data set is classed as ADME, organism-based. The settings on record: in vivo.
The target in data set [2] is Dihydroorotate dehydrogenase (quinone), mitochondrial (Rattus norvegicus, UniProt Q63707). Briefly: Inhibition of N-terminal His6-tagged rat DHODH expressed in Escherichia coli BL21 expressed in Escherichia coli BL21 using L-DHO as substrate and CoQ as co-substrate by DCIP dye based spectrophotometric assay.
Another data set concerns the target Cytochrome P450 2C9 (Homo sapiens, UniProt P11712). Briefly: Inhibition of CYP2C9 in human liver microsomes using isoform-specific probe substrates in presence of NADPH-generating system by LC-MS analysis. Format: ADME.
Data set [3] in a line: Unbound Cmax in Sprague-Dawley rat at 21.3 mg/kg, po measured over 24 hrs by LC-MS analysis. The data set is classed as ADME, organism-based. Particulars: in vivo.
Data set [4] can be described thus: Oral bioavailability in Sprague-Dawley rat at 21.3 mg/kg measured over 24 hrs by LC-MS analysis. Particulars: in vivo. The data set is classed as ADME, organism-based.
The test system of data set [5] is Plasmodium falciparum. Kind of data set: Antiplasmodial activity against Plasmodium falciparum 3D7 infected in NSG mouse assessed as blood AUC level require to show 90% reduction in parasitemia administered orally on day 3 post-infection QD for 4 days and measured after 24 hrs post dose by LC-MS/MS analysis. The settings on record: time 4.0 day. Format: functional, organism-based.

A short description of data set [6]: Cmax in Sprague-Dawley rat at 21.3 mg/kg, po measured over 24 hrs by LC-MS analysis. Further details: route oral, dose 21.3 mg/kg, time >24. Format: ADME, organism-based. The settings on record: in vivo.
Data set [7] in a line: Solubility of compound in FeSSIF at pH 5.8 measured after 5 to 6 hrs by HPLC-UV based analysis. The settings on record: simulated gi fluid, time 5-6 hrs. Format: physicochemical.
A short description of data set [8]: AUC (0 to infinity) in Sprague-Dawley rat at 21.3 mg/kg, po measured over 24 hrs by LC-MS analysis. Format: ADME, organism-based. The settings on record: in vivo. More on the design: route oral, dose 21.3 mg/kg, time >24.
A short description of data set [9]: Unbound AUC (0 to infinity) in Sprague-Dawley rat at 1.8 mg/kg, iv by LC-MS analysis. The settings on record: in vivo. Format: ADME, organism-based.
Data set [10] in a line: Tmax in Sprague-Dawley rat at 21.3 mg/kg, po measured over 24 hrs by LC-MS analysis. Format: ADME, organism-based. Particulars: in vivo.
Data set [11] in a line: Protein binding in rat plasma assessed as bound fraction by LC-MS analysis based ultracentrifugation assay. The data set is classed as ADME, cell-free. The settings on record: read-out: PPB (converted).
A short description of data set [12]: Apparent half-life in Sprague-Dawley rat at 1.8 mg/kg, iv administered as infusion for 10 mins by LC-MS analysis. The data set is classed as ADME, organism-based. Particulars: in vivo, read-out: t1/2(app) (converted).
A short description of data set [13]: Intrinsic clearance in human pooled liver microsomes assessed per mg protein at 1 uM by LC-MS analysis. Format: ADME, Microsome. Particulars: microsomes, 1 µM. On the technique in general: Liver microsomes are vesicles of endoplasmic reticulum, rich in cytochrome P450 enzymes.
The nature of data set [14]: Unbound volume of distribution at steady state Sprague-Dawley in rat at 1.8 mg/kg, iv administered as infusion for 10 mins by LC-MS analysis. The settings on record: in vivo. Format: ADME, organism-based.
Data set [15] is described as follows: Kinetic solubility of compound in phosphate buffer at pH 6.5 measured after 30 mins by HPLC-UV based analysis. The settings on record: phosphate buffer, pH 6.5, read-out: Kinetic_solubility. The data set is classed as physicochemical.
Data set [16] deals with Plasmodium falciparum. Briefly: Antiplasmodial activity against Plasmodium falciparum 3D7 infected in po dosed NSG mouse assessed as reduction in parasitemia administered once daily for 4 consecutive days starting from day 3 post-infection and measured 24 hrs post last dose by flow cytometric analysis. Format: functional. The settings on record: 3D7, po, 96 h, time 4 day. On the technique in general: Flow cytometry measures light scatter and fluorescence of single cells or particles in a stream.

The nature of data set [17]: AUC (0 to infinity) in Sprague-Dawley rat at 1.8 mg/kg, iv administered as infusion for 10 mins by LC-MS analysis. Format: ADME, organism-based. The settings on record: in vivo. Further details: route intravenous, time 10 min, dose 1.8 mg/kg.
A short description of data set [18]: Protein binding in Sprague-Dawley rat plasma at 1.8 mg/kg, iv administered as infusion for 10 mins by LC-MS analysis. The data set is classed as ADME, organism-based. Particulars: read-out: PPB (converted).
Data set [19] in a line: Volume of distribution at steady state in Sprague-Dawley rat at 1.8 mg/kg, iv administered as infusion for 10 mins by LC-MS analysis. Format: ADME, organism-based. The settings on record: in vivo.
The nature of data set [20]: Unbound clearance in Sprague-Dawley rat at 1.8 mg/kg, iv administered as infusion for 10 mins by LC-MS analysis. The data set is classed as ADME, organism-based. Particulars: in vivo.
Data set [21] in a line: AUC (0 to infinity) in Sprague-Dawley rat at 17.5 mg/kg, po measured over 24 hrs by LC-MS analysis. The data set is classed as ADME, organism-based. Further details: route oral, dose 17.5 mg/kg, time >24. Particulars: in vivo.
The nature of data set [22]: Oral bioavailability in Sprague-Dawley rat at 17.5 mg/kg measured over 24 hrs by LC-MS analysis. Format: ADME, organism-based. The settings on record: in vivo.
Data set [23] in a line: Unbound AUC (0 to infinity) in Sprague-Dawley rat at 17.5 mg/kg, po measured over 24 hrs by LC-MS analysis. The data set is classed as ADME, organism-based. Particulars: in vivo.
Data set [24] is described as follows: Unbound AUC (0 to infinity) in Sprague-Dawley rat at […], iv by LC-MS analysis. The settings on record: in vivo, dose 1.6 mg/kg. Format: ADME, organism-based.
Data set [25] can be described thus: Apparent half-life in rat Sprague-Dawley at […], iv administered as infusion for 10 mins by LC-MS analysis. Particulars: in vivo, dose 1.6 mg/kg. The data set is classed as ADME, organism-based.
A short description of data set [26]: Cmax in Swiss mouse at 20 mg/kg, po administered as single dose via gavage measured over 24 hrs by LC-MS analysis. Format: ADME, organism-based. Further details: route oral, dose 20 mg/kg, time >24. The settings on record: in vivo.
The target of the next data set is T1, Cytochrome P450 2C8 (Homo sapiens, UniProt P10632).
T1 sequence (P10632 whole entry): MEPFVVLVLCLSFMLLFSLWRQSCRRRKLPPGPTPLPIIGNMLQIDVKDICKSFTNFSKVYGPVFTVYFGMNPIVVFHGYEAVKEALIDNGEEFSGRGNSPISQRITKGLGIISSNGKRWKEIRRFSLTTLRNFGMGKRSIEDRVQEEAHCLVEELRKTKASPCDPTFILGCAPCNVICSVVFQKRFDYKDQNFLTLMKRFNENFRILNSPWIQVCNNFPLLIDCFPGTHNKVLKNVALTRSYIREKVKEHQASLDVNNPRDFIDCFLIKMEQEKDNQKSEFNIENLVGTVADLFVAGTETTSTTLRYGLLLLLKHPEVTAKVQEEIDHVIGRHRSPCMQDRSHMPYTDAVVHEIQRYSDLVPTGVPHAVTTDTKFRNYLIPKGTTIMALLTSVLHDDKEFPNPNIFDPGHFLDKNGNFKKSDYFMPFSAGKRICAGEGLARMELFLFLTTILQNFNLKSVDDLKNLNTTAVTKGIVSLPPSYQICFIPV
Kind of data set: Inhibition of CYP2C8 in human liver microsomes using isoform-specific probe substrates in presence of NADPH-generating system by LC-MS analysis. Format: ADME.

Data set [27] in a line: Solubility of compound in FeSSIF at pH 5 measured after 5 to 6 hrs by HPLC-UV based analysis. Format: physicochemical. The settings on record: simulated gi fluid, time 5-6 hrs.
The nature of data set [28]: Unbound volume of distribution at steady state in Sprague-Dawley rat at […], iv administered as infusion for 10 mins by LC-MS analysis. The data set is classed as ADME, organism-based. Particulars: in vivo, dose 1.6 mg/kg.
Data set [29] can be described thus: Volume of distribution at steady state in Sprague-Dawley rat at […], iv administered as infusion for 10 mins by LC-MS analysis. The data set is classed as ADME, organism-based. The settings on record: in vivo, dose 1.6 mg/kg.
Data set [30] can be described thus: Cmax in Sprague-Dawley rat at 17.5 mg/kg, po measured over 24 hrs by LC-MS analysis. The data set is classed as ADME, organism-based. Further details: route oral, dose 17.5 mg/kg, time >24. The settings on record: in vivo.
The nature of data set [31]: Unbound clearance in Sprague-Dawley rat at […], iv administered as infusion for 10 mins by LC-MS analysis. Format: ADME, organism-based. The settings on record: in vivo, dose 1.6 mg/kg.
Data set [32] in a line: Tmax in Swiss mouse at 20 mg/kg, po administered as single dose via gavage measured over 24 hrs by LC-MS analysis. The data set is classed as ADME, organism-based. The settings on record: in vivo.

Dihydroorotate dehydrogenase (quinone), mitochondrial, sequence (Q63707 whole entry, canonical isoform): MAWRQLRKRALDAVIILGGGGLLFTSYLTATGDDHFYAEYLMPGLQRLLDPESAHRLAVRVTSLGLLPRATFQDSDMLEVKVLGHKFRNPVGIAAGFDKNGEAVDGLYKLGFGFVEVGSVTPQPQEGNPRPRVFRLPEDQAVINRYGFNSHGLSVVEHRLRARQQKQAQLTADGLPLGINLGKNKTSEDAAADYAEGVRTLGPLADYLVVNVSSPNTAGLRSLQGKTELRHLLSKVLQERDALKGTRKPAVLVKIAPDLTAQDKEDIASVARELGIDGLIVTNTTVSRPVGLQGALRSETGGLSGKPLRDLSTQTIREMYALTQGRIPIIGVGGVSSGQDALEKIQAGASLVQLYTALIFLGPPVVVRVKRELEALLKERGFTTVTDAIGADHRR
Cytochrome P450 2C9, sequence (P11712 whole entry, canonical isoform): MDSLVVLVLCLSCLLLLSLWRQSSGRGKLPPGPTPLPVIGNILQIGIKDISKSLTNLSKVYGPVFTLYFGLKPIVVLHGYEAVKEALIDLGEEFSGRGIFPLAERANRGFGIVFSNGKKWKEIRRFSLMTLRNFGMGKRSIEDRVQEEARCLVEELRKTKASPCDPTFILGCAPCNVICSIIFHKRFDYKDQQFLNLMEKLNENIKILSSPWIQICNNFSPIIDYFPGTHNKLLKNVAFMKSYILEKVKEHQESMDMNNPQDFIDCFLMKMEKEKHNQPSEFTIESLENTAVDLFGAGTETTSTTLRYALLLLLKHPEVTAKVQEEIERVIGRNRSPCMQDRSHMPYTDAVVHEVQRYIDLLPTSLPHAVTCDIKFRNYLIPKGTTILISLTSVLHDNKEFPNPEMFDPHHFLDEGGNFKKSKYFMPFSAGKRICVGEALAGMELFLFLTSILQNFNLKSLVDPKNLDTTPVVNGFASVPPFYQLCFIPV

Usually IC50 stands for the concentration that gives 50% inhibition. A word on the bioavailability: it is dose-corrected exposure relative to a reference, in per cent. A lower bioavailability goes with poor availability. Broadly, the Cmax is the maximum level reached in the sampled fluid or tissue. As usually defined, the solubility is how much of the substance goes into solution per volume. A higher solubility goes with a readily soluble substance. The term AUC(0-inf) denotes the area under the concentration-time curve extrapolated to infinity. As a reminder, the Tmax is the time at which the peak concentration occurs. Usually Vdss stands for a proportionality between amount in the body and measured concentration, not a real space. A higher Vdss goes with extensive tissue distribution. For `Cc1cc(NC2Cc3cc(F)c(F)cc3C2)n2nc(C(C)(F)F)nc2n1`, the values for the fAUC in data set [1] and in data set [9] were 11.7 µM·h and 1.57 µM·h, respectively. Also, the values for the IC50 (in data set [2]; on Cytochrome P450 2C9) were greater than 100 µM and 18.5 µM, respectively. For the same compound, in data set [3], the fCmax amounted to 0.72 µM. Besides, the bioavailability in data set [4] amounted to 63%. Further, in the data set on Plasmodium falciparum [5], the AUCED90 was determined as 137 µM.hr/day. The compound further registered a Cmax in [6] of 12.5 µM. In data set [7], this compound showed a solubility of 65 µg/mL (≈ 178 µM). Besides, the total exposure AUC(0-inf) in [8] was 202 µM·h; in [17] it was 27.1 µM·h. For the same compound, the Tmax in data set [10] turned out to be 4 h. Moreover, in data set [11], the fraction unbound is 0.058. Further, the half-life in [12] is 11.2 h. In addition, in data set [13], the microsomal intrinsic clearance is less than 7 µL/min. The compound also yielded a fVdss in [14] of 47 L/kg. Moreover, the solubility kinetic at 0.5 h in data set [15] was found to be 6.3 µg/mL (≈ 17.2 µM). For the same compound, in the data set with Plasmodium falciparum [16], the ED90 stood at 35 mg/kg. In addition, in data set [18], the fraction unbound at 10 min is 0.058. Besides, in data set [19], the volume of distribution (Vdss) was 2.7 L/kg. This compound also displayed a CL free in data set [20] of 52 mL/min/kg.

For orientation: AUC means concentration integrated over time. Read a high AUC as high exposure. On to `Cc1cc(N[C@H]2CCc3ccc(Cl)cc3C2)n2nc(C(C)(F)F)nc2n1`, for which the AUC in data set [21] came out at 24.6 µM·h. Moreover, the IC50 in [2] was greater than 100 µM; at Cytochrome P450 2C9, 2.1 µM; on Cytochrome P450 2C8, greater than 20 µM. Also, the bioavailability in data set [22] was determined as 67%. Besides, the AUCED90 with Plasmodium falciparum [5] was determined as 10.3 µM.hr/day. The fAUC in data set [23] was found to be 0.89 µM·h; in data set [24], 0.12 µM·h. In data set [25], the “t1/2(app)” value was 5.9 h. Further, the figures for the Cmax in [26] and in data set [30] were 5 µM and 3.3 µM, respectively. In data set [27], this compound yielded a solubility of 36 µg/mL (≈ 95.3 µM). Besides, the fraction unbound in data set [11] was 0.036. The compound further came in with a microsomal intrinsic clearance in data set [13] of less than 7 µL/min. In data set [15], the solubility kinetic at 0.5 h came to 3.1 µg/mL (≈ 8.2 µM). The same compound yielded a fVdss in data set [28] of 186 L/kg. Moreover, in the data set with Plasmodium falciparum [16], the ED90 turned out to be 19 mg/kg. For the same compound, the Vdss in data set [29] is 6.7 L/kg. In addition, in data set [31], the CL free turned out to be 589 mL/min/kg. In addition, in [32], the time to peak (Tmax) was found to be 1 h.
